Assay results: patent publication US20190223437A1, “ACTIVE COMPOUND COMBINATIONS COMPRISING A 5-SUBSTITUTED IMIDAZOLE DERIVATIVE” (BAYER CROPSCIENCE AKTIENGESELLSCHAFT, priority 2016, published 2019)
Read-outs that look alike come from different tables or passages of the source. Marks after values point to notes of the source that are not given here.

Assay: Measurement of Log P values by HPLC on reversed phase columns (EEC directive 79/831 Annex V.A8)
Assay type: physicochemical

Row | LogP | SMILES | other results
1 | 2.46^[a] | Cc1cc(F)ccc1CC(O)(Cn1cncc1Cl)C1(Cl)CC1 (stereo not shown) [Example I-155] | –
2 | 1.62^[a] | OC(Cc1ccnc(Cl)c1)(Cn1cncc1Cl)C1(Cl)CC1 (racemic) [Example I-75] | –
3 | 2.78^[a] | N#Cc1cncn1CC(O)(Cc1ccc(Cl)cc1F)C1(F)CC1 (racemic) [Example I-96] | –
4 | 1.59^[a] | N#Cc1cncn1CC(O)(Cc1ccnnc1Cl)C1(Cl)CC1 (stereo not shown) [Example I-168] | –
5 | 3.55^[a] | CC(C)(C)CC(O)(Cc1ccccc1Cl)Cn1cncc1C#N (racemic) [Example I-83] | –
6 | 2.47^[a] | CC(C)C(O)(Cc1cccc(F)c1F)Cn1cncc1C#N (stereo not shown) [Example I-149] | –
7 | 1.62^[a] | N#Cc1cncn1CC(O)(Cc1ccncc1F)C1(Cl)CC1 (stereo not shown) [Example I-163] | –
8 | 2.56^[a] | N#Cc1cncn1CC(O)(Cc1ccc(F)cc1)C1CCC1 (stereo not shown) [Example I-160] | –
9 | 2.73^[a] | CC(C)(C)C(O)(Cc1ccccc1F)Cn1cncc1C#N (stereo not shown) [Example I-138] | –
10 | 2.33^[a] | Cc1ccccc1CC(O)(Cn1cncc1Cl)C1(Cl)CC1 (racemic) [Example I-71] | –
11 | 2.52^[a] | CC(C)C(O)(Cc1ccc(F)cc1F)Cn1cncc1C#N (stereo not shown) [Example I-128] | –
12 | 3.13^[a] | N#Cc1cncn1CC(O)(Cc1ccc(Cl)cc1F)C1CCC1 (stereo not shown) [Example I-117] | –
13 | 2.40^[a] | CC(C)C(O)(Cc1ccccc1F)Cn1cncc1C#N (stereo not shown) [Example I-139] | –
14 | 2.82^[a] | N#Cc1cncn1CC(O)(Cc1ccc(F)cc1)C1CCCC1 (stereo not shown) [Example I-161] | –
15 | 2.13^[a] | OC(Cc1ccc(F)cc1)(Cn1cncc1Cl)C1(Cl)CC1 (stereo not shown) [Example I-158] | –
16 | 3.10^[a] | CCOC(Cc1ccc(Cl)cc1F)(Cn1cncc1Cl)C1(Cl)CC1 (stereo not shown) [Example I-122] | –
17 | 2.25^[a] | N#Cc1cncn1CC(O)(Cc1ccnc(Cl)c1F)C1(Cl)CC1 (stereo not shown) [Example I-152] | –
18 | 3.00^[a] | N#Cc1cncn1CC(O)(Cc1ccc(F)cc1Cl)C1(Cl)CC1 (stereo not shown) [Example I-154] | –
19 | 1.49^[a] | NC(=O)c1cncn1CC(O)(Cc1ccc(Cl)cc1F)C1CC1 (stereo not shown) [Example I-116] | –
20 | 3.56^[a] | O=C(Cc1ccccc1)c1cncn1CC(O)(Cc1ccccc1)C1(Cl)CC1 (stereo not shown) [Example I-169] | –
21 | 2.35^[a] | Cc1cccc(CC(O)(Cn2cncc2Cl)C2(Cl)CC2)c1F (stereo not shown) [Example I-143] | –
22 | 2.44^[a] | CC(C)C(O)(Cc1ccc(F)cc1)Cn1cncc1C#N (stereo not shown) [Example I-162] | –
23 | 2.91^[a] | CC(C)C(O)(Cc1ccc(Cl)cc1F)Cn1cncc1C#N (stereo not shown) [Example I-118] | –
24 | 2.23^[a] | OC(Cc1cc(Cl)nc(Cl)c1)(Cn1cncc1Cl)C1(Cl)CC1 (racemic) [Example I-74] | –
25 | 2.35^[a] | N#Cc1cncn1CC(O)(Cc1ccc(F)cc1)C1(F)CC1 (racemic) [Example I-100] | –
26 | 2.78^[a] | N#Cc1cncn1CC(O)(Cc1ccc(F)c(F)c1)C1(Cl)CC1 (stereo not shown) [Example I-109] | –
27 | 2.46^[a] | N#Cc1cncn1CC(O)(Cc1ccccc1F)C1CCC1 (stereo not shown) [Example I-137] | –
28 | 2.78^[a] | CC(C)C(O)(Cc1ccc(F)c(F)c1F)Cn1cncc1C#N (stereo not shown) [Example I-105] | –

Continued, molecule first:

Row | SMILES | LogP | other results
29 | N#Cc1cncn1CC(O)(Cc1cc(Cl)cc(Cl)c1)C1(Cl)CC1 (racemic) [Example I-58] | 3.55^[a] | –
30 | N#Cc1cncn1C[C@@](O)(Cc1ccccc1F)C1(Cl)CC1 [Example I-133, 1-[(2S)-2-(1-chlorocyclopropyl)-3-(2-fluorophenyl)-2-hydroxypropyl]-1H-imidazole-5-carbonitrile] | – | chromatographic logP (reversed phase HPLC column, method [a]: LC-UV, acidic range, 0.1% formic acid in water and acetonitrile as eluent, Table 1, compounds of formula (I)): 2.59
31 | OC(Cc1cccnc1Cl)(Cn1cncc1Br)C1(Cl)CC1 (stereo not shown) [Example I-25] | 1.56^[a] | –
32 | OC(Cc1ccccc1Cl)(Cn1cncc1C(F)(F)F)C1(Cl)CC1 (stereo not shown) [Example I-15] | 3.63^[a] | –
33 | OC(Cc1ccccc1)(Cn1cncc1Cl)C1(Cl)CC1 (racemic) [Example I-39] | 2.04^[a] | –
34 | OC(Cn1cncc1Br)(C(F)c1ccccc1Cl)C1(Cl)CC1 (stereo not shown) [Example I-23] | 2.32^[a] | –
35 | N#Cc1cncn1CC(O)(Cc1cc(Br)ncc1Br)C1(Cl)CC1 (racemic) [Example I-47] | 2.73^[a] | –
36 | Cc1ccc(CC(O)(Cn2cncc2Cl)C2(Cl)CC2)c(C)c1 (racemic) [Example I-68] | 2.69^[a] | –
37 | N#Cc1cncn1CC(O)(Cc1ccncc1Br)C1(Cl)CC1 (racemic) [Example I-46] | 1.94^[a] | –
38 | N#Cc1cncn1CC(O)(Cc1cc(Cl)ncc1Cl)C1(Cl)CC1 (racemic) [Example I-56] | 2.62^[a] | –
39 | OC(Cc1ccccc1Cl)(Cn1cncc1I)C1(Cl)CC1 (stereo not shown) [Example I-14] | 2.14^[a] | –
40 | OC(Cc1cccnc1Cl)(Cn1cncc1Cl)C1(Cl)CC1 (stereo not shown) [Example I-07] | 1.57^[a] | –
41 | OC(Cn1cncc1Cl)(C(F)c1ccccc1F)C1(Cl)CC1 (stereo not shown) [Example I-28] | 2.01^[a] | –
42 | N#Cc1cncn1CC(O)(Cc1cccc(Cl)c1Cl)C1(Cl)CC1 (racemic) [Example I-49] | 3.25^[a] | –
43 | N#Cc1cncn1CC(O)(Cc1ccnc(Cl)c1Cl)C1(Cl)CC1 (racemic) [Example I-50] | 2.47^[a] | –
44 | OC(Cc1ccc(F)cc1Cl)(Cn1cncc1Cl)C1(Cl)CC1 (stereo not shown) [Example I-08] | 2.47^[a] | –
45 | OC(Cc1ccccc1F)(Cn1cncc1C1CC1)C1(Cl)CC1 (racemic) [Example I-37] | 1.86^[a] | –

Row | SMILES | LogP | other results
46 | N#Cc1cncn1CC(O)(Cc1ccc(Oc2ccc(Cl)cc2)cc1Cl)C1(Cl)CC1 (racemic) [Example I-53] | 4.54^[a] | –
47 | OC(Cc1cc(F)ncc1Cl)(Cn1cncc1Cl)C1(Cl)CC1 (stereo not shown) [Example I-18] | 2.01^[a] | –
48 | N#Cc1cncn1CC(O)(Cc1cccnc1Cl)C1(Cl)CC1 (stereo not shown) [Example I-26] | 2.01^[a] | –
49 | OC(Cc1cc(Cl)ncc1Cl)(Cn1cncc1Cl)C1(Cl)CC1 (stereo not shown) [Example I-17] | 2.18^[a] | –
50 | OC(Cc1ccccc1F)(Cn1cncc1Cl)C1(Cl)CC1 (stereo not shown) [Example I-32] | 2.07^[a] | –
51 | OC(Cc1ccc(Cl)cc1F)(Cn1cncc1Br)C1(Cl)CC1 (stereo not shown) [Example I-30] | 2.55^[a] | –
52 | COc1cncn1CC(O)(Cc1ccccc1F)C1(Cl)CC1 (racemic) [Example I-35] | 1.67^[a] | –
53 | N#Cc1cncn1CC(O)(Cc1ccc(-c2ccccc2)cc1)C1(Cl)CC1 (racemic) [Example I-63] | – | LogP (method [a]: LC-UV, acidic range, 0.1% formic acid in water and acetonitrile as eluent, Table 1, compounds of formula (I)): 3.68^[a]
54 | N#Cc1cncn1CC(O)(Cc1ccc(Br)cc1Cl)C1(Cl)CC1 (racemic) [Example I-41] | 3.52^[a] | –
55 | OC(Cc1ccnc(Cl)c1Cl)(Cn1cncc1Cl)C1(Cl)CC1 (racemic) [Example I-67] | 2.08^[a] | –
56 | N#Cc1cncn1CC(O)(Cc1ccnc(Cl)c1)C1(Cl)CC1 (racemic) [Example I-62] | 2.04^[a] | –
57 | Cc1cncn1CC(O)(C(F)c1ccccc1Cl)C1(Cl)CC1 (stereo not shown) [Example I-13] | 1.75^[a] | –
58 | OC(Cc1c(Cl)ccnc1Cl)(Cn1cncc1Cl)C1(Cl)CC1 (stereo not shown) [Example I-11] | 2.02^[a] | –
59 | N#CCc1cncn1CC(O)(Cc1ccccc1Cl)C1(Cl)CC1 (stereo not shown) [Example I-21] | 1.66^[a] | –
60 | OC(Cc1cccc(Cl)c1Cl)(Cn1cncc1Cl)C1(Cl)CC1 (racemic) [Example I-66] | 2.69^[a] | –
61 | N#Cc1cncn1CC(O)(Cc1ccc(Br)cc1F)C1(Cl)CC1 (racemic) [Example I-42] | 3.24^[a] | –
